From patent publication US10426768B2, “Subcutaneous delivery of polymer conjugates of therapeutic agents” (Serina Therapeutics, Inc., priority 2011, dated 2019)
Where two headings read alike, the source gives them in different places.

How the values were obtained:
6-OHDA Rat Model [1] = experiment: Forelimb asymmetry (cylinder) test in the 6-OHDA rat model, single subcutaneous dose; format: in vivo, female Sprague-Dawley rats
Method: (§1) In order to study the efficacy of the POZ conjugates described herein, in vivo studies were conducted with female Sprague-Dawley rats. Female Sprague-Dawley rats (275-350 g) were used in the study. Each animal underwent stereotaxic surgery and received a unilateral lesion of the right nigrostriatal pathway via injection of 12.5 μg of 6-hydroxydopamine (6-OHDA) into a single site in the medial forebrain bundle. Rats were monitored over two weeks and underwent behavioral assessment (on day −7) via the cylinder test. Animals lacking overt behavioral asymmetry ([…] ipsilateral forelimb use) were excluded from the study. The rats were them randomly assigned to one of six treatment groups (each N=8). […] The rats received a single subcutaneous dose (2 mL/kg) of vehicle (5% dextrose) or test compound dissolved in 5% dextrose.
(§2) Each group of animals (A-F as described above) were independently assessed rat for rotational behavior and forelimb symmetry on day 1, day 2, day 5 and day 9. In the rotational test, the animals were placed in an automated rotometer apparatus (MedAssociates, USA) and the net number of rotations contraversive to the lesion were recorded over a period of 6 hours on each day. In the forelimb symmetry test, the rats are placed in a clear glass cylinder without top (15 cm diameter×45 cm tall). The number of times each paw touches the side of the cylinder during an individual rear is recorded over a 10 minute observation on each day. The first limb in any rear to touch the wall is scored a single point. If both limbs contact within 0.4 s of each other, then this is scored as a ‘both’. All subsequent exploratory movements about the wall using that limb are scored independently until the other limb contacts the wall with weight support. Alternating stepping motions involving both paws one after the other receive a single score for both. The net number of contralateral touches are calculated and considered a favorable response.

[2] = Pharmacokinetics of rotigotine in rat after intravenous and subcutaneous administration of POZ conjugates; format: in vivo, male Sprague-Dawley rats; settings: for PK profile of plasma rotigotine, in words / Cmax values of plasma rotigotine: rat; for PK profile of plasma rotigotine, in words: SC compared with IV; for Cmax values of plasma rotigotine: at 12 hours, dosed SC at 1.6 mg/kg
Method: In order to study the pharmacokinetics of the POZ conjugates described herein, in vivo studies were conducted with male Sprague-Dawley rats. Twenty-seven male cannulated Sprague-Dawley rats (300-350 g) were divided into nine groups of 3 animals per group. Groups I-II received a single subcutaneous (SC) dose (right flank) of POZ acetyl rotigotine (as described in Example 6) at equivalent doses of 1.6 and 6.4 mg/kg. […] Group V received a single subcutaneous (SC) dose (right flank) of rotigotine hydrochloride at an equivalent dose of 0.5 mg/kg. Groups VI-VII received a single intravenous (IV) dose (lateral tail vein) of POZ acetyl rotigotine (as described in Example 6) at equivalent doses of 0.5 and 2.0 mg/kg. […] The test articles were dissolved in 5% dextrose injection and filtered prior to each injection. Serial blood samples were obtained from each intravenously dosed animal through the cannulated catheter, at time intervals of end of injection, 12, 24, 48, 96 and 168 hours. The time intervals for the subcutaneously dosed animals were 6, 12, 24, 48, 96 and 168 hours. The blood was processed to collect the plasma which was stored at −70° C. before analysis. The plasma samples were extracted with acetonitrile using d3-rotigotine as an internal standard and the analytes in the extract were assayed by chromatographic analysis on LC/MS-MS system using a C-18 reverse phase column with 0.9 um silica coreshell (Accucore™, Thermo Scientific, 30×2.1 mm ID and 2.6 micron particle size). The mobile phase was ammonium formate 10 mM pH3.0 (solvent A); and 90% acetonitrile, 10% methanol, and 0.1% formic acid (solvent B), eluting at 0.6 mL/min.

[3] = rats; cited from earlier work
[4] = man; cited from earlier work
6-OHDA Rat Model [5] = experiment: Rotational test in the 6-OHDA rat model, single subcutaneous dose; format: in vivo, female Sprague-Dawley rats
Method: as §1, §2

[6] = oral; cited from earlier work
[7] = Water solubility of the produced polyoxazoline conjugate; format: physicochemical
[8] = Pharmacokinetics of rotigotine in monkey after subcutaneous administration of POZ conjugates; format: in vivo, female macaques (Cynomolgus monkeys); settings: for average terminal plasma half-life (t½) of rotigotine: one subcutaneous dose, 1.5 or 4.5 mg/kg rotigotine equivalents
Method: The pharmacokinetics of the POZ conjugates of rotigotine was measured in normal, treatment-naïve female macaques. Animals were randomly assigned into four treatment groups, each N=3. […] The test articles were dissolved in 5% dextrose injection and filtered prior to each injection. Serial venous blood samples were obtained from each animal prior to administration of experimental agents on Day 1 and subsequently at 15 min, 30 min, 1 h, 2 h, 4 h, 6 h, 8 h, 24 h, 48 h, 96 h, 192 h, 240 h and 336 h. The blood was processed to collect the plasma which was stored at −70° C. before analysis. These plasma samples were processed and assayed by chromatographic analysis on LC/MS-MS system as described in Example 31.

Compound: CCCN(CCc1cccs1)[C@H]1CCc2c(O)cccc2C1 [Rotigotine, S(−)-2-(N-propyl-N-2-thienylethylamino)-5-hydroxytetralin, reference compound]
- Net ipsiversive forelimb use as a percentage of total forelimb use (Average ± SEM; n = 8) (6-OHDA Rat Model [1]; 0.5 mg/kg SC, Day 2): 60 ± 13%
- Net ipsiversive forelimb use as a percentage of total forelimb use (Average ± SEM; n = 8) (6-OHDA Rat Model [1]; 0.5 mg/kg SC, Day 5): 94 ± 6%
- Net ipsiversive forelimb use as a percentage of total forelimb use (Average ± SEM; n = 8) (6-OHDA Rat Model [1]; 3.0 mg/kg SC, Day 2): 9 ± 13%
- Net ipsiversive forelimb use as a percentage of total forelimb use (Average ± SEM; n = 8) (6-OHDA Rat Model [1]; 3.0 mg/kg SC, Day 5): 85 ± 8%
- half-life ([2]; male, Sprague-Dawley, subcutaneous, 0.5 mg/kg, rat plasma, IV or SC dosing, read-out: terminal plasma half-life (t½) of rotigotine (converted)): 2.8 h
- oral and intraperitoneal bioavailability [3]: less than 10%
- half-life [4]: 2.5 h
- Net number of contraversive turns/6 h period (Average ± SEM; n = 8) (6-OHDA Rat Model [5]; 0.5 mg/kg SC, Day 1): 983 ± 405 turns/6 h period
- Net number of contraversive turns/6 h period (Average ± SEM; n = 8) (6-OHDA Rat Model [5]; 0.5 mg/kg SC, Day 5): −49 ± 9 turns/6 h period
- Net number of contraversive turns/6 h period (Average ± SEM; n = 8) (6-OHDA Rat Model [5]; 3.0 mg/kg SC, Day 1): 1570 ± 312 turns/6 h period
- Net number of contraversive turns/6 h period (Average ± SEM; n = 8) (6-OHDA Rat Model [5]; 3.0 mg/kg SC, Day 5): −39 ± 15 turns/6 h period

Compound: N[C@@H](Cc1ccc(O)c(O)c1)C(=O)O [levodopa]
- bioavailability [6]: less than 10%

Compound: H-[(Acetyl-Rotigotine)10(EOZ)190]—COOH 20K [POZ acetyl rotigotine]
- Net ipsiversive forelimb use as a percentage of total forelimb use (Average ± SEM; n = 8) (6-OHDA Rat Model [1]; 1.6 mg/kg SC, Day 2): 50 ± 13%
- Net ipsiversive forelimb use as a percentage of total forelimb use (Average ± SEM; n = 8) (6-OHDA Rat Model [1]; 1.6 mg/kg SC, Day 5): 85 ± 10%
- water solubility, in words [7]: good water solubility
- terminal plasma half-life (t½) of rotigotine ([2]; rat plasma, IV or SC dosing): 16 h
- PK profile of plasma rotigotine, in words [2]: essentially the same PK profile when delivered either SC or IV
- Cmax values of plasma rotigotine [2]: 0.048 µg/mL
- Net number of contraversive turns/6 h period (Average ± SEM; n = 8) (6-OHDA Rat Model [5]; 1.6 mg/kg SC, Day 1): 872 ± 232 turns/6 h period
- Net number of contraversive turns/6 h period (Average ± SEM; n = 8) (6-OHDA Rat Model [5]; 1.6 mg/kg SC, Day 5): −14 ± 14 turns/6 h period

Compound: H-[(Propionyl-Rotigotine)10(EOZ)190]—COOH 20K [POZ propyl rotigotine]
- Net ipsiversive forelimb use as a percentage of total forelimb use (Average ± SEM; n = 8) (6-OHDA Rat Model [1]; 1.6 mg/kg SC, Day 2): 0 ± 14%
- Net ipsiversive forelimb use as a percentage of total forelimb use (Average ± SEM; n = 8) (6-OHDA Rat Model [1]; 1.6 mg/kg SC, Day 5): 31 ± 13%
- Net ipsiversive forelimb use as a percentage of total forelimb use (Average ± SEM; n = 8) (6-OHDA Rat Model [1]; 6.4 mg/kg SC, Day 2): −2 ± 26%
- Net ipsiversive forelimb use as a percentage of total forelimb use (Average ± SEM; n = 8) (6-OHDA Rat Model [1]; 6.4 mg/kg SC, Day 5): −6 ± 16%
- forelimb use activity, in words (6-OHDA Rat Model [1]; day 5, both doses of 1.6 and 6.4 mg/kg): marked and continuous ipsiversive forelimb use
- water solubility, in words [7]: good water solubility
- terminal plasma half-life (t½) of rotigotine ([2]; rat plasma, IV or SC dosing): 60 h
- PK profile of plasma rotigotine, in words [2]: markedly prolonged PK profile that is near “zero order” kinetics
- Cmax values of plasma rotigotine [2]: 0.006 µg/mL
- Net number of contraversive turns/6 h period (Average ± SEM; n = 8) (6-OHDA Rat Model [5]; 1.6 mg/kg SC, Day 1): 1408 ± 286 turns/6 h period
- Net number of contraversive turns/6 h period (Average ± SEM; n = 8) (6-OHDA Rat Model [5]; 1.6 mg/kg SC, Day 5): 68 ± 60 turns/6 h period
- Net number of contraversive turns/6 h period (Average ± SEM; n = 8) (6-OHDA Rat Model [5]; 6.4 mg/kg SC, Day 1): 1272 ± 405 turns/6 h period
- Net number of contraversive turns/6 h period (Average ± SEM; n = 8) (6-OHDA Rat Model [5]; 6.4 mg/kg SC, Day 5): 5142 ± 777 turns/6 h period
- rotational activity, in words (6-OHDA Rat Model [5]; day 5, high dose of 6.4 mg/kg): marked and continuous contraversive rotations
- average terminal plasma half-life (t½) of rotigotine [8]: 60 h
- PK profile of plasma rotigotine, in words ([8]; subcutaneous): markedly prolonged PK profile that is near “zero order” kinetics

Compound: H-[(α-Methyl-Acetyl-Rotigotine)10(EOZ)190]—COOH 20K [POZ alpha methyl acetyl rotigotine]
- water solubility, in words [7]: good water solubility
- average terminal plasma half-life (t½) of rotigotine [8]: 9 h
